Several values for one entry are separate records, joined by “and”; a condition that tells them apart may be missing. Identical values can stand only once. Like-named read-outs stand apart in the source and are kept apart here.
Tests used:
[1] = test system: SARS2; assay type: cell-based, SARS-CoV-2; settings: for Percentage Inhibition Average 1 μM / Screening data (Relative infection to DMSO controls) Average 1 μM: SARS2, 1 μM; for Screening data (Relative infection to DMSO controls) Average 1 μM / Screening data (Relative infection to DMSO controls) Average 5 μM / Screening data (Relative infection to DMSO controls) Average 10 μM / Screening data (Relative infection to DMSO controls) Average 25 μM / Screening data (Relative infection to DMSO controls) Average 50 μM / Average (relative infection to DMSO over the 5 tested concentrations): 100=DMSO control; for Percentage Inhibition Average 5 μM / Screening data (Relative infection to DMSO controls) Average 5 μM: SARS2, 5 μM; for Percentage Inhibition Average 10 μM / Screening data (Relative infection to DMSO controls) Average 10 μM: SARS2, 10 μM; for Percentage Inhibition Average 25 μM / Screening data (Relative infection to DMSO controls) Average 25 μM: SARS2, 25 μM; for Percentage Inhibition Average 50 μM / Screening data (Relative infection to DMSO controls) Average 50 μM: SARS2, 50 μM; for Average (relative infection to DMSO over the 5 tested concentrations): SARS2, average over 1 to 50 uM
[2] = test system: cells (nuclei count); settings: for Relative cell count to DMSO controls, Average 1 μM / Relative cell count to DMSO controls, Average 5 μM / Relative cell count to DMSO controls, Average 10 μM / Relative cell count to DMSO controls, Average 25 μM / Relative cell count to DMSO controls, Average 50 μM: toxicity data, 100=DMSO control; for Relative cell count to DMSO controls, Average (for correlation analysis): average value over the 5 tested concentrations (1 to 50 uM)
[3] = Exp 1 (SMW475), 1 uM, single well
[4] = Exp 1 (SMW475), 5 uM, single well
[5] = Exp 1 (SMW475), 10 uM, single well
[6] = Exp 1 (SMW475), 50 uM, single well
[7] = Exp 2 (SMW477), 1 uM, single well
[8] = Exp 2 (SMW477), 5 uM, single well
[9] = Exp 2 (SMW477), 10 uM, single well
[10] = Exp 2 (SMW477), 50 uM, single well
[11] = average of Exp 1-3 (SMW475, SMW477, SMW478), n 9, 1 uM
[12] = average of Exp 1-3 (SMW475, SMW477, SMW478), n 9, 5 uM
[13] = average of Exp 1-3 (SMW475, SMW477, SMW478), n 9, 10 uM
[14] = average of Exp 1-3 (SMW475, SMW477, SMW478), n 9, 25 uM
[15] = average of Exp 1-3 (SMW475, SMW477, SMW478), n 9, 50 uM

`COC(=O)c1csc(CN(CCN(C)C)Cc2ccsc2)c1` [SILCS31] was tested, and the “SARS2 antiviral activity” value [1] was “decrease in activity”, the “Percentage Infection Relative to Appropriate DMSO Control with Avg Background Subtraction” value [1, 3] was 89.46% and 114.99% and 104.36% and the “Percentage Infection Relative to Appropriate DMSO Control with Avg Background Subtraction” value [1, 4] was 96.46% and 105.10% and 110.06%. For the same compound, the “Percentage Infection Relative to Appropriate DMSO Control with Avg Background Subtraction” value [1, 5] was 122.44% and 140.70% and 131.42%, the “Percentage Infection Relative to Appropriate DMSO Control with Avg Background Subtraction” value ([1]; Exp 1 (SMW475), 25 uM, single well) was 64.20% and 68.29% and 61.79% and the “Percentage Infection Relative to Appropriate DMSO Control with Avg Background Subtraction” value [1, 6] was 27.95% and 23.70% and 21.94%. For the same compound, the “Percentage Infection Relative to Appropriate DMSO Control with Avg Background Subtraction” value [1, 7] was 99.50% and 100.31% and 97.32%, the “Percentage Infection Relative to Appropriate DMSO Control with Avg Background Subtraction” value [1, 8] was 126.44% and 106.51% and 105.32% and the “Percentage Infection Relative to Appropriate DMSO Control with Avg Background Subtraction” value [1, 9] was 115.31% and 105.13% and 102.55%. The “Percentage Infection Relative to Appropriate DMSO Control with Avg Background Subtraction” value ([1]; Exp 2 (SMW477), 25 uM, single well) was 73.95% and 82.92% and 76.95%, the “Percentage Infection Relative to Appropriate DMSO Control with Avg Background Subtraction” value [1, 10] was 19.41% and 19.72% and 23.27% and the “Percentage Infection Relative to Appropriate DMSO Control with Avg Background Subtraction” value ([1]; Exp 3 (SMW478), 1 uM, Greiner Celigo plates) was 90.68% and 87.75% and 89.34%. The “Percentage Infection Relative to Appropriate DMSO Control with Avg Background Subtraction” value ([1]; Exp 3 (SMW478), 5 uM, Greiner Celigo plates) was 64.83% and 79.11% and 61.06%, the “Percentage Infection Relative to Appropriate DMSO Control with Avg Background Subtraction” value ([1]; Exp 3 (SMW478), 10 uM, Greiner Celigo plates) was 63.55% and 89.71% and 51.99% and the “Percentage Infection Relative to Appropriate DMSO Control with Avg Background Subtraction” value ([1]; Exp 3 (SMW478), 25 uM, Greiner Celigo plates) was 86.74% and 80.23% and 76.86%. For the same compound, the “Percentage Infection Relative to Appropriate DMSO Control with Avg Background Subtraction” value ([1]; Exp 3 (SMW478), 50 uM, Greiner Celigo plates) was 26.23% and 18.61% and 22.87%, the “Percentage Inhibition Average 1 μM” value [1] was 2.92% and the “Screening data (Relative infection to DMSO controls) Average 1 μM” value [1] was 97.08. The “Percentage Inhibition Average 5 μM” value [1] was 5.01%, the “Screening data (Relative infection to DMSO controls) Average 5 μM” value [1] was 94.99 and the “Percentage Inhibition Average 10 μM” value [1] was −2.53%. For the same compound, the “Screening data (Relative infection to DMSO controls) Average 10 μM” value [1] was 102.53, the “Percentage Inhibition Average 25 μM” value [1] was 25.34% and the “Screening data (Relative infection to DMSO controls) Average 25 μM” value [1] was 74.66. The “Percentage Inhibition Average 50 μM” value [1] was 77.37%, the “Screening data (Relative infection to DMSO controls) Average 50 μM” value [1] was 22.63 and the “Average (relative infection to DMSO over the 5 tested concentrations)” value [1] was 78.38. The “Infection Data, Average, Mean” value [1, 11] was 97.08%, the “Infection Data, Average, Mean” value [1, 12] was 94.99% and the “Infection Data, Average, Mean” value [1, 13] was 102.53%. For the same compound, the “Infection Data, Average, Mean” value [1, 14] was 74.66%, the “Infection Data, Average, Mean” value [1, 15] was 22.63% and the “Relative cell count to DMSO controls, Average 1 μM” value (shortened to “Relative cell count … Average 1 μM”) [2] was 113.44. The “Relative cell count to DMSO controls, Average 5 μM” value (“Relative cell count … Average 5 μM” below) [2] was 114.77, the “Relative cell count to DMSO controls, Average 10 μM” value (from here on “Relative cell count … Average 10 μM”) [2] was 109.5 and the “Relative cell count to DMSO controls, Average 25 μM” value (“Relative cell count … Average 25 μM” below) [2] was 102.57. For the same compound, the “Relative cell count to DMSO controls, Average 50 μM” value (shortened to “Relative cell count … Average 50 μM”) [2] was 96.45, the “Toxicity Data, Average, Mean” value [2, 11] was 113.44% and the “Toxicity Data, Average, Mean” value [2, 12] was 114.77%. For the same compound, the “Toxicity Data, Average, Mean” value [2, 13] was 109.50%, the “Toxicity Data, Average, Mean” value [2, 14] was 102.57% and the “Toxicity Data, Average, Mean” value [2, 15] was 96.45%. The “Relative cell count to DMSO controls, Average (for correlation analysis)” value (“Relative cell count … (for correlation analysis)” for short) [2] was 107.35.
For `CCN(CC)CCN(Cc1ccc(C)o1)Cc1cccs1` [SILCS24], the “Infection Data, Average, Mean” value ([1]; Average of Exp 1-3, n 9, 1 uM) was 68.53%, the “Infection Data, Average, Mean” value ([1]; Average of Exp 1-3, n 9, 5 uM) was 71.54% and the “Infection Data, Average, Mean” value ([1]; Average of Exp 1-3, n 9, 10 uM) was 70.96%. The “Infection Data, Average, Mean” value ([1]; Average of Exp 1-3, n 9, 25 uM) was 35.04%, the “Infection Data, Average, Mean” value ([1]; Average of Exp 1-3, n 9, 50 uM) was 19.26% and the “Percentage Infection Relative to Appropriate DMSO Control with Avg Background Subtraction” value [1, 3] was 124.65% and 102.70% and 66.42%. The “Percentage Infection Relative to Appropriate DMSO Control with Avg Background Subtraction” value [1, 4] was 90.16% and 99.17% and 50.26%, the “Percentage Infection Relative to Appropriate DMSO Control with Avg Background Subtraction” value [1, 5] was 93.85% and 91.06% and 50.31% and the “Percentage Infection Relative to Appropriate DMSO Control with Avg Background Subtraction” value [1, 6] was 20.92% and 16.99% and 16.36%. The “Percentage Infection Relative to Appropriate DMSO Control with Avg Background Subtraction” value [1, 7] was 88.56% and 86.90% and 93.54%, the “Percentage Infection Relative to Appropriate DMSO Control with Avg Background Subtraction” value [1, 8] was 78.38% and 98.62% and 72.17% and the “Percentage Infection Relative to Appropriate DMSO Control with Avg Background Subtraction” value [1, 9] was 54.07% and 57.64% and 38.68%. For the same compound, the “Percentage Infection Relative to Appropriate DMSO Control with Avg Background Subtraction” value [1, 10] was 18.59% and 11.16% and 9.24%, the “Percentage Infection Relative to Appropriate DMSO Control with Avg Background Subtraction” value ([1]; Exp 3 (SMW478), 10 uM, single well) was 97.16% and 81.93% and 73.95% and the “Percentage Inhibition Average 1 μM” value [1] was 31.47%. The “Screening data (Relative infection to DMSO controls) Average 1 μM” value [1] was 68.53, the “Percentage Inhibition Average 5 μM” value [1] was 28.46% and the “Screening data (Relative infection to DMSO controls) Average 5 μM” value [1] was 71.54. For the same compound, the “Percentage Inhibition Average 10 μM” value [1] was 29.04%, the “Screening data (Relative infection to DMSO controls) Average 10 μM” value [1] was 70.96 and the “Percentage Inhibition Average 25 μM” value [1] was 64.96%. The “Screening data (Relative infection to DMSO controls) Average 25 μM” value [1] was 35.04, the “Percentage Inhibition Average 50 μM” value [1] was 80.74% and the “Screening data (Relative infection to DMSO controls) Average 50 μM” value [1] was 19.26. For the same compound, the “Average (relative infection to DMSO over the 5 tested concentrations)” value [1] was 53.07, the “Relative cell count … Average 1 μM” value [2] was 133.02 and the “Relative cell count … Average 5 μM” value [2] was 124. For the same compound, the “Relative cell count … Average 10 μM” value [2] was 120.3, the “Relative cell count … Average 25 μM” value [2] was 96.21 and the “Relative cell count … Average 50 μM” value [2] was 76.48. For the same compound, the “Toxicity Data, Average, Mean” value ([2]; Average of Exp 1-3, n 9, 1 uM) was 133.02%, the “Toxicity Data, Average, Mean” value ([2]; Average of Exp 1-3, n 9, 5 uM) was 124.00% and the “Toxicity Data, Average, Mean” value ([2]; Average of Exp 1-3, n 9, 10 uM) was 120.30%. The “Toxicity Data, Average, Mean” value ([2]; Average of Exp 1-3, n 9, 25 uM) was 96.21%, the “Toxicity Data, Average, Mean” value ([2]; Average of Exp 1-3, n 9, 50 uM) was 76.48% and the “Relative cell count … (for correlation analysis)” value [2] was 110.00.
For `COc1ccc(-c2[nH]ncc2C(=O)NCC2CCCCC2)cc1OC` [SILCS52], the “Percentage Inhibition Average 1 μM” value [1] was 7.72%, the “Screening data (Relative infection to DMSO controls) Average 1 μM” value [1] was 92.28 and the “Percentage Inhibition Average 5 μM” value [1] was −17.76%. For the same compound, the “Screening data (Relative infection to DMSO controls) Average 5 μM” value [1] was 117.76, the “Percentage Inhibition Average 10 μM” value [1] was −4.43% and the “Screening data (Relative infection to DMSO controls) Average 10 μM” value [1] was 104.43. The “Percentage Inhibition Average 25 μM” value [1] was −20.98%, the “Screening data (Relative infection to DMSO controls) Average 25 μM” value [1] was 120.98 and the “Percentage Inhibition Average 50 μM” value [1] was −22.98%. The “Screening data (Relative infection to DMSO controls) Average 50 μM” value [1] was 122.98, the “Average (relative infection to DMSO over the 5 tested concentrations)” value [1] was 111.69 and the “Relative cell count … Average 1 μM” value [2] was 103.3. For the same compound, the “Relative cell count … Average 5 μM” value [2] was 97.63, the “Relative cell count … Average 10 μM” value [2] was 97.92 and the “Relative cell count … Average 25 μM” value [2] was 94.91. The “Relative cell count … Average 50 μM” value [2] was 81.04 and the “Relative cell count … (for correlation analysis)” value [2] was 94.96.
